Assay results published in the NIST ThermoML archive (doi:10.1016/j.tca.2005.06.043).
± gives the expanded uncertainty stated by the source.

Legend:
[1] = Calculated from knudsen effusion weight loss
[2] = molar enthalpy of vaporization or sublimation; details: 303 K; Crystal 2; Static calorimetry

| Compound | vapor or sublimation pressure ([1]; 288.36 K, Crystal 2) [kPa] | vapor or sublimation pressure ([1]; 293.31 K, Crystal 2) [kPa] | vapor or sublimation pressure ([1]; 298.28 K, Crystal 2) [kPa] | vapor or sublimation pressure ([1]; 303.22 K, Crystal 2) [kPa] | vapor or sublimation pressure ([1]; 308.19 K, Crystal 2) [kPa] | vapor or sublimation pressure ([1]; 313.16 K, Crystal 1) [kPa] | vapor or sublimation pressure ([1]; 314.21 K, Crystal 1) [kPa] | vapor or sublimation pressure ([1]; 314.65 K, Crystal 1) [kPa] | vapor or sublimation pressure ([1]; 315.63 K, Crystal 1) [kPa] | vapor or sublimation pressure ([1]; 316.65 K, Crystal 1) [kPa] | vapor or sublimation pressure ([1]; 318.12 K, Crystal 1) [kPa] | vapor or sublimation pressure ([1]; 320.59 K, Crystal 1) [kPa] | vapor or sublimation pressure ([1]; 323.03 K, Crystal 1) [kPa] | molar enthalpy [2] [kcal/mol] | vapor or sublimation pressure ([1]; 318.02 K, Crystal) [kPa] | vapor or sublimation pressure ([1]; 322.7 K, Crystal) [kPa] | vapor or sublimation pressure ([1]; 322.99 K, Crystal) [kPa] | vapor or sublimation pressure ([1]; 327.9 K, Crystal) [kPa] | vapor or sublimation pressure ([1]; 332.6 K, Crystal) [kPa] |
| --- | --- | --- | --- | --- | --- | --- | --- | --- | --- | --- | --- | --- | --- | --- | --- | --- | --- | --- | --- |
| BrC12CC3CC(CC(C3)C1)C2 [1-bromotricyclo[3.3.1.1(3,7)]decane] | 0.001603 ± 0.00015 | 0.002687 ± 0.00027 | 0.004279 ± 0.00045 | 0.006896 ± 0.00077 | 0.0111 ± 0.0013 | 0.0169 ± 0.0021 | 0.01766 ± 0.0022 | 0.01847 ± 0.0023 | 0.01952 ± 0.0025 | 0.0215 ± 0.0028 | 0.02411 ± 0.0032 | 0.02925 ± 0.0039 | 0.03472 ± 0.0048 | 17.15 ± 0.151 |  |  |  |  |  |
| O=C(O)c1ccccc1 [benzoic acid] |  |  |  |  |  |  |  |  |  |  |  |  |  |  | 0.001022 ± 8.9e-05 | 0.001693 ± 0.00016 | 0.001744 ± 0.00016 | 0.00289 ± 0.00029 | 0.004567 ± 0.00049 |
